Source: US20230382889A1 (Volastra Therapeutics, Inc., priority 2022, published 2023)
pIC50: −log10 of the molar value.

What follows are compounds tested against hKIF18A (1-374) (Homo sapiens (Human), UniProt Q8NI77) (assay: Inhibition of KIF18A microtubule-dependent ATPase activity (ADP-Glo)). Conditions: 4 nM hKIF18A (1-374).
Assay type: biochemical
Method: Test compounds were plated in a 3× dilution scheme in a 384-well plate. Assay buffer: 80 mM PIPES (pH 6.9), 1 mM MgCl2, 75 mM KCl, 1 mM EGTA, 1 mM DTT, 0.01% BSA, 0.005% Tween-20, 1 μM Taxol in H2O. […] After incubation at room temperature for 30 min, 2.5 μL of microtubule mix was added [0.2 mg/mL pre-formed microtubules, 2.0 mM ATP in assay buffer], the plate was centrifuged for 30 s and then incubated at 28° C. for 60 min. 5 μL of Promega® ADP-Glo Max R1 was added, the plate was centrifuged for 30 s, and the mixture incubated for 4 h at room temperature. 10 μL of Promega® ADP-Glo Max R2 was added, the plate centrifuged for 30 s, and incubated for 60 min at room temperature. Luminescence was measured with an Envision plate reader, and % Inhibition was calculated for each well as: ([max−min]−[test−min])/[max−min]. IC50 values were calculated from concentration vs. % Inhibition data via a four-parameter variable slope model.

hKIF18A (1-374), sequence (Q8NI77 1-374): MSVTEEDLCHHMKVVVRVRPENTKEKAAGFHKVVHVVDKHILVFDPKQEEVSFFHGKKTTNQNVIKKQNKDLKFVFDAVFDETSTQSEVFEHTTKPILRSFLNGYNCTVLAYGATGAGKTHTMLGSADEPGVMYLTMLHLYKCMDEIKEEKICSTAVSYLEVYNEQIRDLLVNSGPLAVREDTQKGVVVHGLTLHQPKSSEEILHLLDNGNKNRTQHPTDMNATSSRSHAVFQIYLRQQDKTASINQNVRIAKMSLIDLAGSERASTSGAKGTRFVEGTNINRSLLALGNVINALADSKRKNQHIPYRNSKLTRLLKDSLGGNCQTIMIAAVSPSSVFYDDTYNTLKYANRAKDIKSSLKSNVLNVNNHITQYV

CC(C)(C)NS(=O)(=O)c1cccc(-c2cn(-c3ccc(NS(=O)(=O)C4(CO)CC4)cc3N3CCC4(CC3)CC4)nn2)c1 [Compound 122, N-(tert-butyl)-3-(1-(4-((1-(hydroxymethyl)cyclopropane)-1-sulfonamido)-2-(6-azaspiro[2.5]octan-6-yl)phenyl)-1H-1,2,3-triazol-4-yl)benzenesulfonamide] and CC(C)(C)NS(=O)(=O)c1cccc(-c2cn(-c3ccc(NS(=O)(=O)CCO)cc3N3CCC4(CC3)CC4)nn2)c1 [Compound 121, N-(tert-butyl)-3-(1-(4-((2-hydroxyethyl)sulfonamido)-2-(6-azaspiro[2.5]octan-6-yl)phenyl)-1H-1,2,3-triazol-4-yl)benzenesulfonamide] are within 0.2 log units of each other in pIC50: 7.74 for the first, 7.85 for the second.

Going from CS(=O)(=O)Nc1ccc(-n2cc(-c3cccc(N4CCOCC4)n3)nn2)c(N2CCC3(CC2)CC3)c1 [Compound 54, N-(4-(4-(6-morpholinopyridin-2-yl)-1H-1,2,3-triazol-1-yl)-3-(6-azaspiro[2.5]octan-6-yl)phenyl)methanesulfonamide] to CS(=O)(=O)Nc1ccc(-n2cc(-c3cccc(N4CC5CC(C4)O5)n3)nn2)c(N2CCC3(CC2)CC3)c1 [Compound 55, N-(4-(4-(6-(6-oxa-3-azabicyclo[3.1.1]heptan-3-yl)pyridin-2-yl)-1H-1,2,3-triazol-1-yl)-3-(6-azaspiro[2.5]octan-6-yl)phenyl)methanesulfonamide], the pIC50 falls from 8.08 to 7.54 (0.54 log units). The first is the more potent here.

Going from Cc1cc(N2CCC(F)(F)CC2)nc(-n2cc(-c3ccc(NS(=O)(=O)C4CC4)cc3N3CCC4(CC3)CC4)nn2)c1 [Compound 105, N-(4-(1-(6-(4,4-difluoropiperidin-1-yl)-4-methylpyridin-2-yl)-1H-1,2,3-triazol-4-yl)-3-(6-azaspiro[2.5]octan-6-yl)phenyl)cyclopropanesulfonamide] to Cc1cc(-c2cn(-c3ccc(NS(C)(=O)=O)cc3N3CCC4(CC3)CC4)nn2)nc(N2CCC(F)(F)CC2)n1 [Compound 21, N-(4-(4-(2-(4,4-difluoropiperidin-1-yl)-6-methylpyrimidin-4-yl)-1H-1,2,3-triazol-1-yl)-3-(6-azaspiro[2.5]octan-6-yl)phenyl)methanesulfonamide], the pIC50 rises from 7.12 to 7.49 (0.37 log units). The second is the more potent here.

Going from O=S(=O)(CCO)Nc1ccc(-c2cn(-c3cnn(C4CCC(F)(F)CC4)c3)nn2)c(N2CCC3(CC2)CC3)c1 [Compound 166, N-(4-(1-(1-(4,4-difluorocyclohexyl)-1H-pyrazol-4-yl)-1H-1,2,3-triazol-4-yl)-3-(6-azaspiro[2.5]octan-6-yl)phenyl)-2-hydroxyethane-1-sulfonamide] to O=S(=O)(CCO)Nc1ccc(-c2cn(-c3cccc(N4CCC(F)(F)CC4)c3)nn2)c(N2CCC3(CC2)CC3)c1 [Compound 65, N-(4-(1-(3-(4,4-difluoropiperidin-1-yl)phenyl)-1H-1,2,3-triazol-4-yl)-3-(6-azaspiro[2.5]octan-6-yl)phenyl)-2-hydroxyethane-1-sulfonamide], the pIC50 rises from 5.55 to 8.07 (2.52 log units).

CC(C)(C)NS(=O)(=O)c1cccc(-c2cn(-c3ccc(NS(C)(=O)=O)cc3N3CCC4(CC3)CC4)nn2)c1 [Compound 12, N-(tert-butyl)-3-(1-(4-(methylsulfonamido)-2-(6-azaspiro[2.5]octan-6-yl)phenyl)-1H-1,2,3-triazol-4-yl)benzenesulfonamide] and CS(=O)(=O)Nc1ccc(-n2cc(-c3cccc(CN4CCC(F)(F)CC4)n3)nn2)c(N2CCC3(CC2)CC3)c1 [Compound 23, N-(4-(4-(6-((4,4-difluoropiperidin-1-yl)methyl)pyridin-2-yl)-1H-1,2,3-triazol-1-yl)-3-(6-azaspiro[2.5]octan-6-yl)phenyl)methanesulfonamide] are within 0.2 log units of each other in pIC50: 8.04 for the first, 7.96 for the second.

Compared with CS(=O)(=O)Nc1ccc(-c2ncc(-c3cccc(NC4CC(F)(F)C4)n3)[nH]2)c(N2CCC3(CC2)CC3)c1 [Compound 32, N-(4-(5-(6-((3,3-difluorocyclobutyl)amino)pyridin-2-yl)-1H-imidazol-2-yl)-3-(6-azaspiro[2.5]octan-6-yl)phenyl)methanesulfonamide], CS(=O)(=O)Nc1ccc(-n2cc(-c3cccc(N4CCC(F)(F)CC4)n3)cn2)c(N2CCC3(CC2)CC3)c1 [Compound 17, N-(4-(4-(6-(4,4-difluoropiperidin-1-yl)pyridin-2-yl)-1H-pyrazol-1-yl)-3-(6-azaspiro[2.5]octan-6-yl)phenyl)methanesulfonamide] is 0.69 log units higher in pIC50: 6.85 for the first, 7.54 for the second. The second is the more potent here.

Compared with CS(=O)(=O)Nc1ccc(-c2nc(-c3cccc(N4CCOCC4)n3)no2)c(N2CCC3(CC2)CC3)c1 [Compound 163, N-(4-(3-(6-morpholinopyridin-2-yl)-1,2,4-oxadiazol-5-yl)-3-(6-azaspiro[2.5]octan-6-yl)phenyl)methanesulfonamide], CS(=O)(=O)Nc1ccc(-n2cc(-c3cccc(N4CCC(F)(F)CC4)n3)nn2)c(N2CCC3(CC2)CC3)n1 [Compound 46, N-(5-(4-(6-(4,4-difluoropiperidin-1-yl)pyridin-2-yl)-1H-1,2,3-triazol-1-yl)-6-(6-azaspiro[2.5]octan-6-yl)pyridin-2-yl)methanesulfonamide] is 2.60 log units higher in pIC50: 5.44 for the first, 8.04 for the second. The second is the more potent here.

O=S(=O)(CCO)Nc1ccc(-n2cc(-c3ccn(C4CCCC4)n3)nn2)c(N2CCC3(CC2)CC3)c1 [Compound 83, N-(4-(4-(1-cyclopentyl-1H-pyrazol-3-yl)-1H-1,2,3-triazol-1-yl)-3-(6-azaspiro[2.5]octan-6-yl)phenyl)-2-hydroxyethane-1-sulfonamide] and Cc1cc(-c2cn(-c3ccc(NS(=O)(=O)CCO)cc3N3CCC4(CC3)CC4)nn2)nc(N2CCCC2)n1 [Compound 98, 2-hydroxy-N-(4-(4-(6-methyl-2-(pyrrolidin-1-yl)pyrimidin-4-yl)-1H-1,2,3-triazol-1-yl)-3-(6-azaspiro[2.5]octan-6-yl)phenyl)ethane-1-sulfonamide] are within 0.2 log units of each other in pIC50: 8.00 for the first, 7.92 for the second.

Going from Cn1cc(-c2cn(-c3ccc(NS(=O)(=O)CCO)cc3N3CCC4(CC3)CC4)nn2)nc1N1CCC(F)(F)CC1 [Compound 119, N-(4-(4-(2-(4,4-difluoropiperidin-1-yl)-1-methyl-1H-imidazol-4-yl)-1H-1,2,3-triazol-1-yl)-3-(6-azaspiro[2.5]octan-6-yl)phenyl)-2-hydroxyethane-1-sulfonamide] to Cc1ncc(-c2cn(-c3ccc(NS(=O)(=O)CCO)cc3N3CCC4(CC3)CC4)nn2)nc1N1CCC(F)(F)CC1 [Compound 124, N-(4-(4-(6-(4,4-difluoropiperidin-1-yl)-5-methylpyrazin-2-yl)-1H-1,2,3-triazol-1-yl)-3-(6-azaspiro[2.5]octan-6-yl)phenyl)-2-hydroxyethane-1-sulfonamide], the pIC50 rises from 7.38 to 8.14 (0.76 log units). The second is the more potent here.

Compared with O=C(O)c1cc(-c2cn(-c3ccc(NS(=O)(=O)CCO)cc3N3CCC4(CC3)CC4)nn2)nc(N2CCC(F)(F)CC2)n1 [Compound 158, 2-(4,4-difluoropiperidin-1-yl)-6-(1-(4-((2-hydroxyethyl)sulfonamido)-2-(6-azaspiro[2.5]octan-6-yl)phenyl)-1H-1,2,3-triazol-4-yl)pyrimidine-4-carboxylic acid], Cc1cc(-c2cn(-c3ccc(NS(=O)(=O)CCO)cc3N3CCC4(CC3)CC4)nn2)nc(N2CCC(C(F)F)C2)n1 (centres unmarked) [Compound 103, N-(4-(4-(2-(3-(difluoromethyl)pyrrolidin-1-yl)-6-methylpyrimidin-4-yl)-1H-1,2,3-triazol-1-yl)-3-(6-azaspiro[2.5]octan-6-yl)phenyl)-2-hydroxyethane-1-sulfonamide] is 0.72 log units lower in pIC50: 8.42 for the first, 7.70 for the second. The first is the more potent here.
